# Experimental data taken from US7049331B2, “1,2,4-thiadiazole derivatives as melanocortin receptor modulators” (Ortho-McNeil Pharmaceutical, Inc., priority 2001, dated 2006).
# Like-named read-outs stand apart in the source and are kept apart here.
# Columns and labels:
# Hippocampal Cells = assay: Neurite Cell Outgrowth Assay, hippocampal cells; type: cell-based; settings: Rattus norvegicus; 50 nM; percent change over the vehicle response; NA = no change/not active
# Text: (§1) Dissociated hippocampal and cortical cell cultures were established from embryonic day 18 rat fetuses as described by Mattson, M. P., Barger, S. W., Begley, J, and Mark, R. J., Methods Cell Biol., 1994, 46:[…]. Briefly, fetuses were removed via cesarean section from pregnant moms (Sprague-Dawley) and anesthetized with halothane according to the AVMA Panel on Euthanasia. Pups were decapitated and the brains were removed and placed in HEPES-buffered Hank's Balanced Salt solution (HBSS; Gibco). The hippocampi and cortices were dissected out and pooled according to tissue-type. Tissue was trypsinized for 15 min (1 mg/ml trypsin-HBSS; Worthington), rinsed with fresh HBSS, incubated in trypsin inhibitor (1 mg/ml; Sigma) for 5 min, rinsed again with fresh HBSS and then triturated in 1 ml fresh HBSS with a fire-polished glass pipette. Dissociated cells were seeded at 30,000 cells/well onto poly-D-lysine coated 96-well plates (Collaborative BioScience). Each well contained 100 μl of Eagle's Minimal Essential Media (MEM; Gibco) supplemented with 26 mM NaHCO3 (Sigma), 56 mM glucose (Sigma), 15 mM KCl (Sigma), 1 mM sodium pyruvate (Sigma), 1.1 mM L-glutamine (Sigma), 10% (v/v) heat-inactivated fetal bovine serum (Hyclone), and 0.001% gentamicin sulfate (Sigma) (pH 7.4). Cells were allowed to attach for 24 h in a humidified 37° C. 5% CO2 incubator before experimental treatment. The culture media was aspirated and exchanged with fresh media every 3 days.
# (§2) Twenty-four hours after plating, cultures were treated with vehicle (PBS+0.1% BSA), alpha-melanocyte stimulating hormone (α-MSH) or test compound (diluted in DPBS). Each treatment condition was run in quadruplicate. On the third day in culture, the media was aspirated off and replaced with fresh media and test compound. At one week in culture, the cells were fixed with 10% phosphate-buffered formalin for 15 min, then rinsed with DPBS (Sigma) and placed in blocking serum for 30 min (horse serum; 1:50 dilution in DPBS; Vector Labs). The cultures were rinsed again with DPBS and then incubated in primary antibody for 2 hr (microtubule-associated protein-2 (MAP-2) is a selective marker for dendritic processes; anti-mouse monoclonal (Chemicon); 1:1000 dilution of MAP-2 in antibody diluent (Zymed)). Negative control wells were incubated in antibody diluent alone. Background signal was determined by blank wells (cell-free) incubated with or without antibody. Cultures were rinsed again with DPBS and then placed in fluorescein for 1 hr (FITC; anti-mouse IgG; rat adsorbed; 1:50 dilution in DPBS; Vector Labs). Cultures were rinsed a final time with DPBS and the plates were then read on a Cytofluor 4000 fluorescence plate reader. Neurite outgrowth was expressed as percent change from control (vehicle).
# (§3) The data are expressed as percent change over the vehicle response. All compounds were screened at 50 nM. The abbreviation NA indicates no change/not active; the abbreviation ND indicates a compound not tested/response not determined.
# [1] = biological target: T1, melanocortin MC-4 receptor (Homo sapiens, UniProt P32245); assay: MC-4 receptor binding (Filtration); settings: Filtration; for IC50: read-out: IC50 MC-4 (μM) (Filtration)
# T1 construct: purchased Receptor Biology Inc
# T1 sequence (P32245 whole entry): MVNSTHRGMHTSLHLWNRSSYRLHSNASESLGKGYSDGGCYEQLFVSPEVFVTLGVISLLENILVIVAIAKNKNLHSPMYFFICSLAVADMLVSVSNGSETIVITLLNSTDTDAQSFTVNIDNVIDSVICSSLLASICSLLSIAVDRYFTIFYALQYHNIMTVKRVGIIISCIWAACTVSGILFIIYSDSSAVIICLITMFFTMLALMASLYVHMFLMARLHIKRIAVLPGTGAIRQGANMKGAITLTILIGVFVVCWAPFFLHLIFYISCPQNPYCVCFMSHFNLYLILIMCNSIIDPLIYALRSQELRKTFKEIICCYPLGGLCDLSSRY
# Experimental: The procedures described above for the melanocortin MC-4 receptor were repeated for the melanocortin MC-3 receptor. Following the procedures described, representative compounds of the present invention were tested for binding in the MC-4 and/or MC-3 assay, as listed in Table 4.
# [2] = biological target: T1, melanocortin MC-4 receptor; assay: Melanocortin MC-4 Receptor Binding Assay (SPA)
# Experimental: Melanocortin MC-4 Receptor Binding Assay Melanocortin [MC-4]-membrane [purchased from Receptor Biology Inc] was coupled to wheat germ agglutinin coated polyvinyl toluene-Scintillation Proximity Assay beads [purchased from Amersham Pharmacia Inc.] for 30 min at 25° C. Into each well of a 96-well Opti plate [purchased from Packard, Calif.], 2.5 μg of membrane and 0.25 mg of beads were mixed in a volume of 100 μL media. […] Test compounds (1.5 μL) at 1 mM in 30% DMSO-50 mM HEPES, pH 7.4 buffer was added to separate wells on the plate. Radioactive ligand ^125I-NDP-melanocyte stimulating hormone [NEN, 2000Ci/mmol] was added to each well (48.5 μL per well, 40 pM final concentration). The plate was then sealed and let stand for 16 hr at 25° C. NDP-Melanocyte stimulating hormone peptide and α-melanocyte stimulating hormone peptide [purchased from Palomar Research Inc, 1 μM] were used as reference inhibitor compounds to define non-specific binding (N). Total binding (T) was defined using 30% DMSO-50 mM HEPES, pH 7.4 buffer. Bound radioactivity for each well (Y), measured at counts per minute (cpm) was measured in a TopCount [Packard, Calif.]. Percent inhibition was calculated as: […] The procedures described above for the melanocortin MC-4 receptor were repeated for the melanocortin MC-3 receptor. Following the procedures described, representative compounds of the present invention were tested for binding in the MC-4 and/or MC-3 assay, as listed in Table 4.
# Cortical Cells = assay: Neurite Cell Outgrowth Assay, cortical cells; type: cell-based; settings: Rattus norvegicus; 50 nM; percent change over the vehicle response; NA = no change/not active
# Text: as §1, §2, §3
# Food-Deprived Rats = assay: Rodent Feeding: Food Intake in Food-Deprived Rats (MC-4); type: in vivo, rat; settings: Rattus norvegicus
# Text: Rodent Feeding: Food Intake in Food-Deprived Rats (MC-4)
# Male Long-Evans rats (180–200 grams) were housed individually and maintained on a once-a-day feeding schedule (i.e.10 a.m. until 4 p.m.) for five days following quarantine to allow the animals to acclimate to feeding on powdered chow (#5002 PMI Certified Rodent Meal) during the allotted time. The chow was made available in an open jar, anchored in the cage by a wire, with a metal follower covering the food to minimize spillage. Water was available ad-libitum.
# Animals were fasted for 18 hours prior to testing. At the end of the fasting period, animals were administered either a test compound or vehicle. Vehicle and test compound were administered either orally (5 mL/kg) 60 minutes prior to the experiment, subcutaneously (1 mL/kg) 30 minutes prior to the experiment, or intraperitoneally (1 mL/kg) 30 minutes prior to the experiment. Test compounds were administered orally as a suspension in aqueous 0.5% methylcellulose-0.4% Tween 80, or intraperitoneally as a solution or suspension in PEG 200; compound concentrations typically ranged from 1 mg/kg to 100 mg/kg, preferably from 10–30 mg/kg. Food intake was measured at 2, 4, and 6 hours after administration by weighing the special jar containing the food before the experiment and at the specified times. Upon completion of the experiment, all animals were given a one-week washout period before re-testing.
# Following the procedure described above, select compounds of the present invention were tested to measure the effect on food intake in fasted rats, as listed in Table 5 and 6.
# [3] = ip, 2 h, ip, read-out: Change in Food Intake 0–2 hrs (%)
# [4] = ip, 6 h, ip, read-out: Change in Food Intake 2–6 hrs (%)
# [5] = po, 2 h, po, read-out: Change in Food Intake 0–2 hrs (%)
# [6] = po, 6 h, po, read-out: Change in Food Intake 2–6 hrs (%)
Compound,activation at 0.05 µM (Hippocampal Cells) [%],IC50 [1] [µM],IC50 [2] [nM],activation at 0.05 µM (Cortical Cells) [%],further results
Cc1ccccc1-[n+]1sc(Nc2ccc(Cl)cc2)nc1-c1ccccc1 [Compound 13],29,3.4,347,32,
Cc1ccccc1Nc1nc(-c2ccccc2)[n+](-c2ccc(Cl)cc2)s1 [Compound 19],22,3.9,460,,
Cc1ccccc1Nc1nc(-c2ccccc2)[n+](-c2ccccc2)s1 [Compound 26],16,,63,47,change in vivo at 10 mg/kg (Food-Deprived Rats; [3]): -12.7%; change in vivo at 10 mg/kg (Food-Deprived Rats; [4]): -32.3%
COc1ccc(Nc2nc(-c3ccccc3)[n+](-c3ccc(Cl)cc3)s2)cc1 [Compound 16],8,4.3,424,18,
Cc1ccc(-[n+]2sc(Nc3ccccc3)nc2-c2ccccc2)cc1 [Compound 2],18,1.5,234,18,
Cc1ccc(Nc2nc(-c3ccccc3)[n+](-c3ccc(Cl)cc3)s2)cc1 [Compound 18],17,6,463,17,
Cc1ccccc1Nc1nc(-c2ccccc2)[n+](-c2ccccc2C)s1 [Compound 12],28,,,20,IC50 MC-4 (μM) (Filtration) [1]: insoluble; IC50 MC-4 (nM) (SPA) [2]: insoluble
Cc1ccc(-[n+]2sc(Nc3ccccc3Cl)nc2-c2ccccc2)cc1 [Compound 7],,2.2,218,11,
Clc1ccc(Nc2nc(-c3ccccc3)[n+](-c3ccccc3)s2)cc1 [Compound 27],17,,89,52,change in vivo at 30 mg/kg (Food-Deprived Rats; [3]): -27.4%; change in vivo at 30 mg/kg (Food-Deprived Rats; [4]): -29.1%
COc1ccc(/N=c2\nc(-c3ccccc3)n(-c3ccc(C)cc3)s2)cc1 [Compound 83],11,1.9,833,9,
Clc1ccc(-[n+]2sc(Nc3ccccc3Cl)nc2-c2ccccc2)cc1 [Compound 21],27,7.8,392,2,
Clc1ccc(-[n+]2sc(Nc3ccccc3)nc2-c2ccccc2)cc1 [Compound 15],18,4.5,482,31,
COc1ccccc1Nc1nc(-c2ccccc2)[n+](-c2ccccc2C)s1 [Compound 10],7,2.3,130,11,
COc1ccccc1-[n+]1sc(Nc2ccccc2Cl)nc1-c1ccccc1 [Compound 34],,,46,22,change in vivo at 10 mg/kg (Food-Deprived Rats; [3]): -38%; change in vivo at 10 mg/kg (Food-Deprived Rats; [4]): -72%; change in vivo at 10 mg/kg (Food-Deprived Rats; [5]): -1.3%; change in vivo at 30 mg/kg (Food-Deprived Rats; [5]): -7.5%; change in vivo at 10 mg/kg (Food-Deprived Rats; [6]): -6%; change in vivo at 30 mg/kg (Food-Deprived Rats; [6]): 2%
COc1ccccc1-[n+]1sc(Nc2ccccc2C)nc1-c1ccccc1 [Compound 32],,,48,6,change in vivo at 10 mg/kg (Food-Deprived Rats; [3]): -29.6%; change in vivo at 10 mg/kg (Food-Deprived Rats; [4]): -60.2%; change in vivo at 1 mg/kg (Food-Deprived Rats; [5]): -13.8%; change in vivo at 3 mg/kg (Food-Deprived Rats; [5]): -11.5%; change in vivo at 10 mg/kg (Food-Deprived Rats; [5]): -20%; change in vivo at 30 mg/kg (Food-Deprived Rats; [5]): -12.5%; change in vivo at 1 mg/kg (Food-Deprived Rats; [6]): 26%; change in vivo at 3 mg/kg (Food-Deprived Rats; [6]): 31.2%; change in vivo at 10 mg/kg (Food-Deprived Rats; [6]): -1%; change in vivo at 30 mg/kg (Food-Deprived Rats; [6]): -15%
COc1ccccc1Nc1nc(-c2ccccc2)[n+](-c2ccc(Cl)cc2)s1 [Compound 17],8,7.7,351,17,
Cc1ccccc1-[n+]1sc(Nc2ccccc2Cl)nc1-c1ccccc1 [Compound 14],30,5.6,234,19,
Cc1ccccc1-[n+]1sc(Nc2ccccc2)nc1-c1ccccc1 [Compound 8],,1.4,201,12,
COc1ccc(Nc2nc(-c3ccccc3)[n+](-c3ccccc3OC)s2)cc1 [Compound 29],,,48,8,change in vivo at 10 mg/kg (Food-Deprived Rats; [3]): -62.3%; change in vivo at 10 mg/kg (Food-Deprived Rats; [4]): -70.7%; change in vivo at 30 mg/kg (Food-Deprived Rats; [5]): -26.3%; change in vivo at 30 mg/kg (Food-Deprived Rats; [6]): -3.7%
Clc1ccc(Nc2nc(-c3ccccc3)[n+](-c3ccc(Cl)cc3)s2)cc1 [Compound 20],17,3.5,636,,
COc1ccc(Nc2nc(-c3ccccc3)[n+](-c3ccccc3C)s2)cc1 [Compound 9],,1.1,217,,
Clc1ccccc1Nc1nc(-c2ccccc2)[n+](-c2ccccc2)s1 [Compound 49],16,,96,51,change in vivo at 30 mg/kg (Food-Deprived Rats; [3]): -20.6%; change in vivo at 30 mg/kg (Food-Deprived Rats; [4]): -21.2%
